Where only a bound is given, the exact number is not on record here.

The values below come from patent US9585897B2, “Anti-infective hydroxy-phenyl-benzoates and methods of use” (priority 2008, dated 2017).

Data set [1] relates to S. aureus. The class given is cell-based, Staphylococcus aureus. As to conditions: for agr expression: dose-dependent, SAL at 25 or 50 μg/ml, DICL, 2.5 or 5 μg/ml.
For data set [2], the system named is SA strains SH1000 (MSSA), USA300 (MRSA). The data set can be described thus: Hemolysin phenotype compared to gene expression. The settings on record: in parallel to hla; 25 μg/ml.
Data set [3] has as its system SH1000 (MSSA). The experiment in a line: Gene expression quantified by realtime PCR, strain SH1000. As to conditions: early log phase (2-4 hr); 25 μg/ml.
The test system of data set [4] is USA300 (MRSA). The experiment in a line: Gene expression quantified by realtime PCR, strain USA300. The settings on record: early log phase (2-4 hr); 25 μg/ml.
Data set [5] has as its system SA strains SH1000 (MSSA), USA300 (MRSA). The data set can be described thus: Antibiotic resistance phenotype (antibiotic MIC) in presence of salicylates. As to conditions: vs. both strains.
Data set [6] has the same test system. The data set can be described thus: Gene expression quantified by realtime PCR, statements covering both SA strains. Format: cell-based, Staphylococcus aureus.
The subject of data set [7] is S. aureus strains MSSA (6850), MRSA (COL), RN6390, SH1000, sigB operon deleted strains. The experiment in a line: Rabbit IE model with a range of S. aureus strains. The class given is in vivo.
In data set [8] the test system is S. aureus (9 individual strains). The experiment in a line: S. aureus-to-fibrinogen or -fibronectin binding, solid-phase assays. The class given is cell-based, Staphylococcus aureus. As to conditions: pre-exposed to SAL 30 and 50 μg/ml; composite of 9 strains; dose-dependent. An excerpt:
Induction of endovascular infections is linked to the microbial binding to relevant vascular damage sites.
Fibrinogen and fibronectin play key roles as ligands for S. aureus binding to cellular docking sites (e.g., platelets and endothelial cells), as well as bridging molecules that facilitate these same interactions in which additional factors are operative (e.g., gC1qR-platelet or endothelial cell binding). Peerschke and Ghebrehiwet, Immunobiology.
Mean reduction (±SD) vs. control (100%). Data are composite results of laboratory S. aureus RN6390, COL, Newman, and ISP479C, and clinical MRSA 67-0, 6850, Duke 28, Duke 153, and Duke 237. […] Key: A P<0.005; B <P 0.001.

Data set [9] concerns S. aureus FDA 486 and rsbU/V/W mutants. The class given is cell-based, Staphylococcus aureus.
Data set [10] deals with S. aureus. The data set can be described thus: sarA-repressible genes, lipase and protein A. The settings on record: in the presence of SAL.
Data set [11] has as its system S. aureus: ISP479C, Newman and COL. The settings on record: physiologically relevant drug concentrations; cited from earlier work.
The test system of data set [12] is S. aureus. The experiment in a line: Solid-phase plate assay, adherence to fibrin and platelet-fibrin matrices. Format: cell-based, Staphylococcus aureus. As to conditions: organism pre-exposure to SAL in vitro. Here is the method: A solid-phase plate assay was used to quantify the impact of SAL on the ability of S. aureus to adhere to fibrin and platelet-fibrin matrices. Platelet-rich (PRP) or platelet-free plasma (PFP) from control animals or those given a single-dose of aspirin iv (8 mg/kg) 5 hr prior to plasma isolation, were used to generate such matrices. […] Kupferwasser et al. Circulation. 1999 99:2791-7. These strains bound equally to control matrices and those constructed from aspirin-treated animals (data not shown).

Data set [13] deals with S. aureus. The experiment in a line: Protease activity in S. aureus supernatants. The class given is cell-based, Staphylococcus aureus. As to conditions: in the presence of SAL.
The subject of data set [14] is S. aureus α-toxin. Format: cell-based, Staphylococcus aureus.
For data set [15], the system named is S. aureus: ISP479C, Newman and COL. The data set can be described thus: In vitro MICs of aspirin and SAL. As to conditions: 10-50 ug/ml up to 8 mg/ml. The class given is cell-based, Staphylococcus aureus.
Data set [16] has as its system strain RN6390. The data set can be described thus: Rabbit model of IE, aspirin alone 4 to 12 mg/kg/d for 4 d. The class given is in vivo. Here is the method:
To begin to assess the in vitro data sets for in vivo relevance, the rabbit model of IE as described by […] et al. Handbook of Animal Models of Infection. Academic Press, New York, N.Y., was utilized. Animals with pre-established IE caused by strain RN6390 were administered a wide range of iv aspirin dose regimens (4 to 12 mg/kg/d for 4 d therapy). This range affords human-equivalent sera levels in rabbits as described in Kupferwasser et al. Circulation. 1999 99:2791-7.

The test system of data set [17] is three distinct S. aureus strains. The data set can be described thus: NSAID effect on phenotypic or genotypic characteristics of S. aureus in vitro. Format: cell-based, Staphylococcus aureus. An excerpt:
These findings also substantiate the concept that the anti-infective properties of aspirin likely occur by both platelet-dependent (aspirin) and platelet independent (SAL) mechanisms. Thus, the discovery of adjunctive use of SALs for MRSA infections are particularly relevant given: 1) long-term and extensive experience of aspirin for a variety of clinical indications; 2) its well-defined pharmacokinetics; and 3) its excellent adverse event and safety profiles.

Data set [18] in a line: Plasma prostacyclin levels after aspirin dosing.
Data set [19] has as its system S. aureus IE. The experiment in a line: Rabbit model of S. aureus IE, aspirin, vancomycin or both for 2 d. The class given is in vivo. How it is done:
In the rabbit model of S. aureus IE, two intravenous (iv) aspirin dose regimens designed to encompass those used in a previous aspirin-alone efficacy study (4 or 8 mg/kg/d) were employed. Animals received aspirin alone, vancomycin alone at a low dose regimen (7.5 mg/kg bid iv), or the two agents combined. Treatment was only for 2 d, based on the rationale that as the in vivo effects of vancomycin are traditionally slow in onset, maximal disclosure of any synergistic effect of the two compounds may emerge at this early time point.

Turning to `O=C(O)Cc1ccccc1Nc1c(Cl)cccc1Cl` [DICL, diclofenac], the agr expression entry in data set [1] is “reduced”.

In the case of `O=C(O)c1cc(-c2ccc(F)cc2F)ccc1O` [DIF, 5-(2,4-difluorophenyl)-2-hydroxy-benzoic acid], the Hemolysis phenotypes entry in [2] is “suppressed”. Further, in data set [3], the “suppression of agr RNAIII, hla, and vraR” value is given as > 20 fold. The “expression of agr RNAIII, hla, mprF, and sspA” value in data set [4] is “suppressed”. Moreover, the “increases in ciprofloxacin MIC” value in [5] was “prevented increases”. Also, in data set [6], the “regulatory and VF gene expression in MSSA and MRSA” value is “significantly modulate”. Moreover, the “effectiveness relative to SAL in suppressing virulence factor regulation or expression in MRSA” value in data set [6] (in vitro, MRSA including USA300) is listed as “approximately 10 fold”. In data set [6] (log phase), the “reduction of RNAIII (agr), hla, sspA compared with SAL” value is listed as “ten-fold higher reduction”.

As to `O=C(O)c1cc(O)ccc1O` [GTA, gentisic acid], in data set [6] (25 μg/ml), the gene expression entry is recorded as “did not alter”.

Regarding `O=C(O)c1ccccc1O` [SAL, salicylic acid], in [1], the hla expression result is “significantly reduced”, the “protein A gene expression (spa)” value is listed as “increased”, the “sarA (P1) expression” value is “down-regulating” and the “sarC (P3) expression” value is “up-regulating”. Further, the agr expression result in data set [1] was “reduced”. Moreover, the “in vivo efficacy compared with aspirin” value in [7] (same in vivo efficacy study carried out with SAL) is “equivalent results to aspirin alone”. Besides, in data set [8], the “fibrinogen and fibronectin binding” value is “significant reductions”. For the same molecule, the “sigB expression (as measured by increases in asp23 expression)” value in [9] is reported as “induces”. Moreover, in [10], the Lipase activity increase is ~2.6 fold and the “protein A expression increase” value was ~20%. Further, the “intrinsic bacteriostatic or bactericidal effects” value in data set [11] was “no evident intrinsic bacteriostatic or bactericidal effects”. For the same molecule, in [12], the “binding to fibrin and platelet-fibrin matrices” value is “Significant reductions”. For the same molecule, the “protease activity in supernatants” value in [13] is reported as “increased up to five-fold”. In data set [14], the Hla protein production entry is reported as “dose dependent reduction”; the “thrombolysis and hemolysis by supernates” value was “reduced”; the α-toxin elaboration result is recorded as “reduced”. Besides, the “regulatory and VF gene expression in MSSA and MRSA” value in data set [6] was “significantly modulate”. In [6] (25 μg/ml), the “modulation of gene expression or hemolysis” value is listed as “limited modulation”. Also, the “growth inhibition (in vitro MIC testing)” value in data set [15] is “no substantial growth inhibition”.

Consider `CC(=O)Oc1ccccc1C(=O)O` [aspirin, acetylsalicylic acid], for which the “beneficial effects of 8 mg/kg/d versus lower (4 mg/kg/d) or higher (12 mg/kg/d) dose regimens” value in [16] (8 mg/kg/d) is on record as “significantly exceeded”. Moreover, in [16] (aspirin 12 mg/kg/d), the “beneficial effects at increased dose” value is given as “paradoxical loss”. Besides, the “vegetation weight, and vegetation and kidney bacterial densities” value in [16] (iv aspirin 4 to 12 mg/kg/d for 4 d) is “consistent and dose-dependent reduction”. In [16] (rabbit, in vivo), the “mass of echocardiographic detectable cardiac valve vegetations” value is given as “dramatic reductions”. For the same molecule, in data set [17], the “changes in phenotypic or genotypic characteristics” value was “neither aspirin (parent compound of SAL) nor indomethacin caused detectable changes”. For the same molecule, the “effects of aspirin treatment across strains” value in [7] (RN6390 and rsbU-repaired variant SH1000) is “Equivalent salutary effects”. For the same molecule, in data set [7] (strains deleted of their entire sigB operon), the impact of aspirin entry is recorded as “dampened”. For the same molecule, in data set [18] (12 mg/kg aspirin dosing), the prostacyclin generation entry is “prolonged suppression”. Further, the “prolonged suppression of prostacyclin generation” value in data set [18] (4 or 8 mg/kg aspirin) is listed as “neither at 4 or 8 mg/kg”. Moreover, in data set [19] (aspirin 8 mg/kg/d iv), the “bacterial counts in vegetations and kidneys” value is “significantly reduces”. Further, the “modulation of gene expression or hemolysis” value in data set [6] (25 μg/ml) is “limited modulation”. Further, the “growth inhibition (in vitro MIC testing)” value in data set [15] is reported as “no substantial growth inhibition”.

Consider `COc1ccc2c(c1)c(CC(=O)O)c(C)n2C(=O)c1ccc(Cl)cc1` [indomethacin], for which the “changes in phenotypic or genotypic characteristics” value in data set [17] is “neither aspirin (parent compound of SAL) nor indomethacin caused detectable changes”.

For `CN[C@H](CC(C)C)C(=O)N[C@H]1C(=O)N[C@@H](CC(N)=O)C(=O)N[C@H]2C(=O)N[C@H]3C(=O)N[C@H](C(=O)N[C@H](C(=O)O)c4cc(O)cc(O)c4-c4cc3ccc4O)[C@H](O)c3ccc(c(Cl)c3)Oc3cc2cc(c3O[C@@H]2O[C@H](CO)[C@@H](O)[C@H](O)[C@H]2O[C@H]2C[C@](C)(N)[C@H](O)[C@H](C)O2)Oc2ccc(cc2Cl)[C@H]1O` [vancomycin], the “bacterial counts in vegetations and kidneys” value in data set [19] (vancomycin 7.5 mg/kg bid iv) is on record as “significantly reduces”.
